Laboratory results: patent US9139609B2, “C-4″ position substituted macrolide derivative” (priority 2011, dated 2015)
≈ marks a conversion by molar mass, not a printed value.

Tests used:
Assay type in all cases: cell-based
[1] = tested on: Streptococcus pneumoniae ATCC700904; assay: In vitro antibacterial activity, microbroth dilution method (CLSI method), test bacterium C (erythromycin resistant); conditions: read-out: MIC (minimum inhibitory concentration), test bacterium C
Protocol: (§1) In vitro antibacterial activities of the compounds of the present invention against various test bacteria were measured according to the microbroth dilution method (CLSI method). Among them, the bacteria C, D and E are erythromycin resistant bacteria. The MIC values (minimum inhibitory concentration, μg/ml) for the test bacteria A and B are exemplified in Table 22.

[2] = tested on: Streptococcus pyogenes M808; assay: In vitro antibacterial activity, microbroth dilution method (CLSI method), test bacterium D (erythromycin resistant); conditions: read-out: MIC (minimum inhibitory concentration), test bacterium D
Protocol: as §1

[3] = tested on: Mycoplasma pneumoniae MSC04933; assay: In vitro antibacterial activity, microbroth dilution method (CLSI method), test bacterium E (erythromycin resistant); conditions: read-out: MIC (minimum inhibitory concentration), test bacterium E
Protocol: as §1

| MIC [1] [µg/mL] | MIC [2] [µg/mL] | MIC [3] [µg/mL] | SMILES |
| --- | --- | --- | --- |
| ≤ 0.06 | ≤ 2 | ≤ 0.25 | CC[C@H]1OC(=O)[C@H](C)[C@@H](O[C@H]2C[C@@](C)(OC)[C@@](O)(CN(C)CCN(C)C)[C@H](C)O2)[C@H](C)[C@@H](O[C@@H]2O[C@H](C)C[C@H](N(C)C)[C@H]2O)[C@@](C)(OC)C[C@@H](C)C(=O)[C@H](C)[C@H]2C(SCCCn3cnc4c(N)ncnc43)C(=O)O[C@@]21C (stereo partly drawn) [Example 364] |
| 0.12 to 0.25 (≈ 0.116 to 0.242 µM) | ≤ 2 | ≤ 0.25 | CC[C@H]1OC(=O)[C@H](C)[C@@H](O[C@H]2C[C@@](C)(OC)[C@@](O)(CN(C)CCN(C)C(C)(C)c3ccccc3OC)[C@H](C)O2)[C@H](C)[C@@H](O[C@@H]2O[C@H](C)C[C@H](N(C)C)[C@H]2O)[C@@]2(C)C[C@@H](C)C3(NCCN4C(=O)O[C@@]1(C)[C@H]4[C@H]3C)O2 [Example 341] |
| 0.12 to 0.25 (≈ 0.115 to 0.239 µM) | ≤ 2 | ≤ 0.25 | CC[C@H]1OC(=O)[C@H](C)[C@@H](O[C@H]2C[C@@](C)(OC)[C@@](O)(CN(C)CCN(C)C(C)(C)c3ccccc3OC)[C@H](C)O2)[C@H](C)[C@@H](O[C@@H]2O[C@H](C)C[C@H](N(C)C)[C@H]2O)[C@@](C)(OC)C[C@@H](C)C(=O)[C@H](C)[C@H]2C(C#N)C(=O)O[C@@]21C (stereo partly drawn) [Example 363] |
| 0.12 to 0.25 (≈ 0.114 to 0.238 µM) | ≤ 2 | ≤ 0.25 | CC[C@H]1OC(=O)[C@H](C)[C@@H](O[C@H]2C[C@@](C)(OC)[C@@](O)(CN(C)CCN(C)C(C)(C)c3ccccc3OC)[C@H](C)O2)[C@H](C)[C@@H](O[C@@H]2O[C@H](C)C[C@H](N(C)C)[C@H]2O)[C@@](C)(OC(N)=O)C[C@@H](C)C(=O)[C@H](C)[C@H]2NC(=O)O[C@@]21C [Example 342] |
| 0.12 to 0.25 (≈ 0.115 to 0.239 µM) | ≤ 2 | ≤ 0.25 | CC[C@H]1OC(=O)[C@H](C)[C@@H](O[C@H]2C[C@@](C)(OC)[C@@](O)(CN(C)CCN(C)C(C)(C)c3ccccc3OC)[C@H](C)O2)[C@H](C)[C@@H](O[C@@H]2O[C@H](C)C[C@H](N(C)C)[C@H]2O)[C@@](C)(OC)C[C@@H](C)C2=NCCN3C(=O)O[C@@]1(C)[C@H]3[C@H]2C [Example 338] |
